# Assay results as given in PMC5650142, “GPR40 partial agonists and AgoPAMs: Differentiating effects on glucose and hormonal secretions in the rodent” (PLoS ONE, 2017).
# Values joined by “and” are separate entries in the source; they are usually repeats but may differ in a detail not shown here. Equal values may be shown once.
# Tests used:
# [1] = tested on: pancreatic islets from wild type and GPR40−/− mice; test: Isolated pancreatic islets static GDIS assay (insulin, glucagon secretion); type: cell-based, mouse; design: Islet insulin / Islet insulin, mean: unit not given here; conditions: for Islet Glucagon / Islet insulin: individual replicates; for Islet Glucagon, mean / Islet insulin, mean: mean of replicates
# Experimental: Pancreatic islets of Langerhans were isolated from wild type and GPR40^−/− mice (littermates) by collagenase digestion and discontinuous Ficoll gradient separation. […] Insulin secretion was determined by a 1-h static incubation in Krebs-Ringer bicarbonate (KRB) buffer in a 96-well format as previously described. […] The buffer was removed from the wells at the end of the incubation and assayed for insulin levels using the Insulin ELISA kit (ALPCO, Salem, NH) and glucagon level using glucagon ELISA kit (ALPCO, Salem, NH).
# GK rats = test: GK rat chronic efficacy (28 days: glucose, food intake, body weight, GLP-1, GIP, PYY, insulin, glucagon); type: in vivo; design: Food Intake Over Time (Fig 3C) / Total Body Weight Change Over Time / Active GLP-1 Levels Over Time: unit not given here; conditions: for Total Body Weight Change Over Time / Active GLP-1 Levels Over Time / GIP Levels Over Time / PYY Levels Over Time / Plasma Insulin Over Time: GK rats; for GIP Levels Over Time / PYY Levels Over Time: in pg/mL (unit assumed)
# Outline: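 Daily oral gavage for 28 days, AP1 or AP3 at 30 mg/kg in 0.5% methylcellulose; MK-8666 at 30 mg/kg in feed. Fed glucose, food intake and weight on days 10, 17, 23, 28; glucose, GLP-1, GIP, PYY after 6 h fast, 1 h post dose. Hormones by MSD immunoassay or bead panel.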
smiles,measurement,setting,value
Cc1cc(OCCCS(C)(=O)=O)cc(C)c1-c1cccc(COc2cc3c(cn2)[C@H]2[C@@H](C3)[C@@H]2C(=O)O)c1 [MK-8666],Islet Glucagon,"[1]; KO mouse islets, G2, 10 uM",18.0653 pg/ml/ islet and 18.1157 pg/ml/ islet and 9.579 pg/ml/ islet and 14.1337 pg/ml/ islet and 15.8166 pg/ml/ islet and 22.7674 pg/ml/ islet
same,Islet insulin,"[1]; KO mouse islets, G2, 10 uM",0.7614 and 0.3958 and 0.3055 and 0.5799 and 0.6404 and 0.3029
same,"Islet Glucagon, mean","[1]; KO mouse islets, G2, 10 uM",16.4129 pg/ml/ islet
same,"Islet insulin, mean","[1]; KO mouse islets, G2, 10 uM",0.4977
same,Islet Glucagon,"[1]; KO mouse islets, G16, 10 uM",11.8893 pg/ml/ islet and 4.442 pg/ml/ islet and 4.11 pg/ml/ islet and 16.6705 pg/ml/ islet and 9.138 pg/ml/ islet and 11.4903 pg/ml/ islet and 5.5193 pg/ml/ islet and 2.29 pg/ml/ islet and 10.7282 pg/ml/ islet and 2.062 pg/ml/ islet
same,Islet insulin,"[1]; KO mouse islets, G16, 10 uM",1.241 and 2.484 and 3.15 and 0.9538 and 3.706 and 3.098 and 3.161 and 1.875 and 3.378 and 6.11
same,"Islet Glucagon, mean","[1]; KO mouse islets, G16, 10 uM",7.834 pg/ml/ islet
same,"Islet insulin, mean","[1]; KO mouse islets, G16, 10 uM",2.9156
same,Islet Glucagon,"[1]; WT mouse islets, G2, 10 uM",19.4342 pg/ml/ islet and 13.1173 pg/ml/ islet and 22.868 pg/ml/ islet and 18.9373 pg/ml/ islet and 12.9706 pg/ml/ islet and 18.154 pg/ml/ islet
same,"Islet Glucagon, mean","[1]; WT mouse islets, G2, 10 uM",17.5802 pg/ml/ islet
same,"Islet insulin, mean","[1]; WT mouse islets, G2, 10 uM",0.394
same,Islet Glucagon,"[1]; WT mouse islets, G16, 10 uM",6.349 pg/ml/ islet and 9.927 pg/ml/ islet and 6.387 pg/ml/ islet and 12.9481 pg/ml/ islet and 7.932 pg/ml/ islet and 7.688 pg/ml/ islet and 3.944 pg/ml/ islet and 9.1471 pg/ml/ islet and 7.361 pg/ml/ islet
same,"Islet Glucagon, mean","[1]; WT mouse islets, G16, 10 uM",7.965 pg/ml/ islet
same,"Islet insulin, mean","[1]; WT mouse islets, G16, 10 uM",4.275
same,glucagon secretion from islets,"[1]; WT mouse islets, ex vivo",not
same,"Glucose Over time (S2 File, Fig 2A)","GK rats; 30 mpk, Day 0, individual animals",167 mg/dL and 165 mg/dL and 192 mg/dL and 168 mg/dL and 160 mg/dL and 197 mg/dL and 172 mg/dL and 183 mg/dL and 169 mg/dL and 161 mg/dL
same,Food Intake Over Time (Fig 3C),"GK rats; 30 mpk, Day 10",20.6389 and 19.3556 and 19.3778 and 21 and 18.9
same,"Glucose Over time (S2 File, Fig 2A)","GK rats; 30 mpk, Day 10, individual animals",128 mg/dl and 123 mg/dl and 142 mg/dl and 120 mg/dl and 139 mg/dl (2×) and 127 mg/dl and 130 mg/dl and 140 mg/dl and 115 mg/dl
same,Food Intake Over Time (Fig 3C),"GK rats; 30 mpk, Day 17",18.0071 and 18.5429 and 17.1786 and 18.0357 and 16.8714
same,"Glucose Over time (S2 File, Fig 2A)","GK rats; 30 mpk, Day 17, individual animals",130 mg/dL and 155 mg/dL and 159 mg/dL and 140 mg/dL and 132 mg/dL and 137 mg/dL and 120 mg/dL and 138 mg/dL and 110 mg/dL and 102 mg/dL
same,Food Intake Over Time (Fig 3C),"GK rats; 30 mpk, Day 23",18.6833 and 18.8833 and 18.4167 and 19.5083 and 18.1917
same,"Glucose Over time (S2 File, Fig 2A)","GK rats; 30 mpk, Day 23, individual animals",129 mg/dL and 132 mg/dL and 148 mg/dL and 138 mg/dL and 131 mg/dL and 124 mg/dL and 143 mg/dL and 144 mg/dL and 119 mg/dL and 122 mg/dL
same,Food Intake Over Time (Fig 3C),"GK rats; 30 mpk, Day 28",18.66 and 18.67 and 17.38 and 21.2 and 17.95
same,"Glucose Over time (S2 File, Fig 2A)","GK rats; 30 mpk, Day 28, individual animals",130 mg/dL and 128 mg/dL and 147 mg/dL and 122 mg/dL and 143 mg/dL and 136 mg/dL and 123 mg/dL and 135 mg/dL and 131 mg/dL and 116 mg/dL
same,Fasted glucose on day 28 (Fig 3B),"GK rats; 30 mpk, day 28, fasted, individual animals",119 and 118 and 107 and 100 and 94 and 104 and 124 and 102 and 96 and 105
same,Fed glucose on day 28 (Fig 3B),"GK rats; 30 mpk, day 28, fed, individual animals",123 and 135 and 131 and 116 and 130 and 128 and 147 and 122 and 143 and 136
same,"gut hormones (total and active GLP-1, GIP, PYY)","GK rats; GK rat, 30 mg/kg, 4 weeks of treatment",no effect
same,Plasma Glucagon,"GK rats; GK rat, 30 mg/kg, 28 days",trend of increasing glucagon on day 28
same,body weight,"GK rats; GK rat, 30 mg/kg, 28 days",no effect
same,fed blood glucose vs vehicle controls,"GK rats; GK rat, 30 mg/kg, 28 days, days 10–28",significant effect on day 28 only
same,Total Body Weight Change Over Time,"GK rats; 30 mpk, Day 0, individual animals (Fig 3D)",0
same,Active GLP-1 Levels Over Time,"GK rats; 30 mpk, Day 0, individual animals (Fig 4B), 30 mg/kg",1.901 and 1.26 and 2.116 and 3.51 and 2.184 and 0.8674 and 1.257 and 2.71 and 1.494 and 1.111
same,GIP Levels Over Time,"GK rats; 30 mpk, Day 0, individual animals (Fig 4C), 30 mg/kg",12.65 and 5.7 and 68.06 and 68.73 and 44.75 and 71.88 and 53.28 and 113.97 and 32.85 and 33.08
same,PYY Levels Over Time,"GK rats; 30 mpk, Day 0, individual animals (Fig 4D), 30 mg/kg",104.9 and 81.92 and 88.3 and 95.99 and 52.32 and 50.41 and 79.99 and 158.3 and 57.72 and 25.52
same,Plasma Insulin Over Time,"GK rats; 30 mpk, Day 0, individual animals (Fig 5A), 30 mg/kg",0.7825 ng/mL and 1.015 ng/mL and 2.348 ng/mL and 1.621 ng/mL and 2.16 ng/mL and 2.5584 ng/mL and 2.141 ng/mL and 1.201 ng/mL and 2.632 ng/mL and 2.493 ng/mL
same,Total Body Weight Change Over Time,"GK rats; 30 mpk, Day 10, individual animals (Fig 3D), 30 mg/kg",20 and 26 and 18 and 13 and 22 and 3 and 11 and 21 and 12 and 4
same,Active GLP-1 Levels Over Time,"GK rats; 30 mpk, Day 10, individual animals (Fig 4B), 30 mg/kg",1.599 and 1.212 and 2.275 and 1.828 and 2.945 and 2.154 and 1.327 and 1.669 and 1.343 and 1.536
same,GIP Levels Over Time,"GK rats; 30 mpk, Day 10, individual animals (Fig 4C), 30 mg/kg",39.32 and 74.04 and 79.4 and 80.59 and 90.86 and 47.57 and 50.25 and 47.43 and 58.38 and 34.5
same,PYY Levels Over Time,"GK rats; 30 mpk, Day 10, individual animals (Fig 4D), 30 mg/kg",68.18 and 84.22 and 84.94 and 98.89 and 97.3 and 93.71 and 80.17 and 75.96 and 87.42 and 74.37
same,Plasma Insulin Over Time,"GK rats; 30 mpk, Day 10, individual animals (Fig 5A), 30 mg/kg",1.605 ng/mL and 1.432 ng/mL and 1.588 ng/mL and 2.061 ng/mL and 1.507 ng/mL and 2.521 ng/mL and 2.104 ng/mL and 0.5711 ng/mL and 1.866 ng/mL and 2.359 ng/mL
same,Total Body Weight Change Over Time,"GK rats; 30 mpk, Day 17, individual animals (Fig 3D), 30 mg/kg",34 (2×) and 41 and 29 and 32 (2×) and 11 and 22 (2×) and 9
same,Active GLP-1 Levels Over Time,"GK rats; 30 mpk, Day 17, individual animals (Fig 4B), 30 mg/kg",0.86 and 0.3 and 1.09 and 0.6 and 0.76 and 1.16 and 0.79 and 0.57 (2×) and 1.44
same,GIP Levels Over Time,"GK rats; 30 mpk, Day 17, individual animals (Fig 4C), 30 mg/kg",72.64 and 104.54 and 131.52 and 71.84 and 86.95 and 58.88 and 85.41 and 17.08 and 86.39 and 75.71
same,PYY Levels Over Time,"GK rats; 30 mpk, Day 17, individual animals (Fig 4D), 30 mg/kg",84.67 and 106.51 and 99.04 and 75.86 and 81.98 and 124.9 and 74.42 and 49.36 and 77.72 and 64.96
same,Plasma Insulin Over Time,"GK rats; 30 mpk, Day 17, individual animals (Fig 5A), 30 mg/kg",2.096 ng/mL and 1.971 ng/mL and 2.299 ng/mL and 1.835 ng/mL and 1.8388 ng/mL and 1.142 ng/mL and 2.593 ng/mL and 0.8411 ng/mL and 2.087 ng/mL and 1.846 ng/mL
same,Total Body Weight Change Over Time,"GK rats; 30 mpk, Day 23, individual animals (Fig 3D), 30 mg/kg",40 and 50 and 44 and 31 (2×) and 12 and 29 and 38 and 27 and 17
same,Total Body Weight Change Over Time,"GK rats; 30 mpk, Day 28, individual animals (Fig 3D), 30 mg/kg",42 (2×) and 59 and 53 and 39 and 16 and 38 and 47 and 36 and 23
same,Active GLP-1 Levels Over Time,"GK rats; 30 mpk, Day 28, individual animals (Fig 4B), 30 mg/kg",1.155 and 1.013 and 1.22 and 0.9448 and 0.9241 and 0.9389 and 0.7791 and 1.439 and 1.063 and 0.9152
same,GIP Levels Over Time,"GK rats; 30 mpk, Day 28, individual animals (Fig 4C), 30 mg/kg",17.53 and 7.25 and 46.24 and 76.52 and 12.03 and 22.4 and 15.13 and 16.8 and 5.84
same,PYY Levels Over Time,"GK rats; 30 mpk, Day 28, individual animals (Fig 4D), 30 mg/kg",66.63 and 94.86 and 108.27 and 72.37 and 63.96 and 49.91 and 49.72 and 83.74 and 62.98 and 45.13
same,Plasma Insulin Over Time,"GK rats; 30 mpk, Day 28, individual animals (Fig 5A), 30 mg/kg",1.012 ng/mL and 1.26 ng/mL and 1.45 ng/mL and 2.851 ng/mL and 1.138 ng/mL and 1.638 ng/mL and 1.554 ng/mL and 1.1554 ng/mL and 1.58 ng/mL and 1.305 ng/mL
